Measured values: patent US10596103B2, “Drug delivery system for delivery of anti-virals” (Merck Sharp & Dohme B.V., priority 2013, dated 2020)

Test: Solubility of vicriviroc in EVA by partitioning experiments
Format: physicochemical
Description: The solubility of vicriviroc in EVA was determined by partitioning experiments. A small sample of polymer film (approximately 10 mg) was immersed in a saturated aqueous vicriviroc solution (5 mL PBS buffer pH 7). Once the film was immersed the drug diffused from the saturated solution into the film until an equilibrium was achieved. As a result the drug concentration of the aqueous solution decreased and the drug concentration in the film increased. The decrease of the drug concentration in the aqueous solution was continuously measured with a fiber optic probe (Rainbow Dynamic Dissolution Monitor).

With `COC[C@@H](c1ccc(C(F)(F)F)cc1)N1CCN(C2(C)CCN(C(=O)c3c(C)ncnc3C)CC2)C[C@@H]1C` [vicriviroc] the “Vicriviroc loading above which supersaturation occurs” value (in EVA 28) was “above 1.4 % by weight” and the “Solubility of vicriviroc in EVA 28” value (polymer film in saturated aqueous vicriviroc solution, PBS buffer pH 7, FIG. 14) was 1.2-1.4 wt %.
